Source: paper PMC8230474, “Synthesis of Novel Acyl Derivatives of 3-(4,5,6,7-Tetrabromo-1H-benzimidazol-1-yl)propan-1-ols—Intracellular TBBi-Based CK2 Inhibitors with Proapoptotic Properties” (International Journal of Molecular Sciences, 2021)
Read-outs that look alike come from different tables or passages of the source.

Tests used:
MDA-MB-231 cells = test: MTT viability assay, MDA-MB-231; assay type: cell-based; conditions: Homo sapiens, read-out: EC50 ± SD MDA-MB-231
Protocol: (§1) To test the anti-cancer effect of the TBBi derivatives, we treated the MCF-7 and MDA-MB-231 cells with the newly synthesized esters and previously reported compounds [34, 57] at the concentration range of 3.125 to 200 µM for 24 h, 48 h and 72 h. Additionally, the range of concentrations was extended by additional lower concentrations in MCF-7 for compound 4 with the minimum concentration of 0.195 µM. […] The EC50 values, describing the half maximal effective concentration of each tested compound, were calculated and are summarized in Table 2. […] We observed that the EC50 values increase in both cell lines with the elongation of fatty acids chain length in the tested compounds, thus strongly correlating with the decrease of their solubility in biological media as characterized by logS parameter (Table 2). The second reason for the decreased biological activity of the longer-chain aliphatic esters might be attributed to their greater resistance toward intracellular hydrolysis, which directly influences the slower release of the active form of the corresponding CK2 inhibitors. […] However, none of the tested compounds, except for compound 5, decreased the viability of both cell lines in a time-dependent manner (Figure 4).
(§2) MCF-7 and MDA-MB-231 were cultured in high-glucose Dulbecco’s modified Eagle medium (DMEM, Lonza, Basel, Switzerland) supplemented with 10% fetal bovine serum (FBS, EuroClone, Siziano, Italy)), 2 mM L-glutamine, and antibiotics (100 U/mL penicillin, 100 µg/mL streptomycin) (Sigma-Aldrich Chemical Company (St. Louis, MO, USA). Cells were grown in 75-cm^2 cell culture flasks (Sarstedt, Nümbrecht, Germany) in a humidified atmosphere of CO2/air (5%/95%) at 37 °C. All the experiments were performed in exponentially growing cultures. Stock solutions of the test compounds were prepared in DMSO and stored in −80 °C for a maximum of one month. For the cytotoxicity studies, stock solutions of the tested compounds were diluted 200-fold with the proper culture medium to obtain the final concentrations.
(§3) After incubation with the tested compounds, an MTT test was performed as described previously. Optical densities were measured at 570 nm using BioTek microplate reader (Winooski, VT, USA). All measurements were carried out in a minimum of three biological replicates.

MCF-7 cells = test: MTT viability assay, MCF-7; assay type: cell-based; conditions: Homo sapiens, read-out: EC50 ± SD MCF-7
Protocol: as §1, §2, §3

[1] = target: human CK2 catalytic subunit (CK2α) (Homo sapiens, UniProt P68400); test: Radiometric (P81 filter isotopic) kinase assay, CK2 catalytic subunit; assay type: biochemical; conditions: read-out: Residual Activity of the Enzyme CK2α; for remaining activity at 5 µM: 5 µM compound; for remaining activity at 10 µM: 10 µM compound
human CK2 catalytic subunit (CK2α), sequence (P68400 whole entry): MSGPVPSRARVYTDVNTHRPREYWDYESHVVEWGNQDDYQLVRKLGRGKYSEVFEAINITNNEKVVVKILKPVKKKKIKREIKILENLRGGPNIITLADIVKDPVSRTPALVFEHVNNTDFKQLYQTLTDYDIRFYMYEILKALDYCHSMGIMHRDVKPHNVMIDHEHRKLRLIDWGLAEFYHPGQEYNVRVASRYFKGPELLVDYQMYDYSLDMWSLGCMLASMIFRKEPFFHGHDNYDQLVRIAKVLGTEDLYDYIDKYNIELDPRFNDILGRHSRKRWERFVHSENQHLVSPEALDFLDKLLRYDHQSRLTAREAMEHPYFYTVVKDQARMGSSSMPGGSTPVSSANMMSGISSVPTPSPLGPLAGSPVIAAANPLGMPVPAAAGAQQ

[2] = target: CK2 holoenzyme (CK2 α2β2) (Homo sapiens, UniProt P68400); test: Radiometric (P81 filter isotopic) kinase assay, CK2 holoenzyme; assay type: biochemical; conditions: read-out: Residual Activity of the Enzyme CK2 α2β2; for remaining activity at 5 µM: 5 µM compound; for remaining activity at 10 µM: 10 µM compound
CK2 holoenzyme (CK2 α2β2), sequence (P68400 whole entry): as above
CK2 holoenzyme (CK2 α2β2), sequence (P67870 whole entry partner): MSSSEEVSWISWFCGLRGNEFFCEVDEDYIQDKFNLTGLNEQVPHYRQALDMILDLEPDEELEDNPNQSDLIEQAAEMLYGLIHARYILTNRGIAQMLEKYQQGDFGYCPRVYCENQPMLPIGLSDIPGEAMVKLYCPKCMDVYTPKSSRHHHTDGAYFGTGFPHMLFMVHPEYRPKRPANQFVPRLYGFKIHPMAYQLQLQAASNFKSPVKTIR

[3] = test system: protein kinase CK2 in MCF-7 cells; test: Intracellular inhibition of CK2, Western blot of p-Ser529 p65 and p-Ser129 Akt1, MCF-7; assay type: cell-based, human
Description: We observed an inhibition of CK2 in both cell lines; however, the lower efficiency of CK2 inhibition was detected in MCF-7 considering the extent of Akt1 phosphorylation. The relative level of the phosphorylation of the tested proteins in MDA-MB-231 cells was in the range of 0.32 to 0.80 for p-Ser529 p65 and 0.41 to 0.73 for p-Ser129 Akt1, whereas in MCF-7 cells it was in the range of 0.33 to 0.78 for p-Ser529 p65 and 0.82 to 1.23 for p-Ser129 Akt1, respectively. The lowest phosphorylation levels of the tested proteins were detected in MDA-MB-231 cells for compound 6b with the relative level of 0.41 for Ser129 Akt1 as well as for compound 6c with the relative level of 0.32 for p-Ser529 p65. Among the tested proteins, the lowest extent of phosphorylation in MCF-7 cells was detected for 6b with the relative level of 0.33 for p-Ser529 p65, and for 6a with the relative level of 0.82 for Ser129 Akt1.
Considering an inefficient inhibition of CK2 in MCF-7, we evaluated an inhibition of CK2 in this cell line after 72 h. […] The relative levels were in the range of 0.17 to 0.8 for p-Ser529 p65 and 0.19 to 0.79 for p-Ser129 Akt1.
The MCF-7 cells growing exponentially were seeded at 4.8 × 10^5 cells in 6-cm-diameter plates. Subsequently, compounds were added in a final concentration of 0.5% DMSO. After incubation, floating cells were collected and cell monolayer was washed three times in ice-cold PBS and the cells were scraped, combined with floating cells and lysed in RIPA buffer consisting of 50 mM Tris-HCl (pH 7.4), 1% NP-40, 0.5% sodium deoxycholate, 0.1% SDS, 150 mM NaCl, 2 mM EDTA, 50 mM NaF, 0.2 mM sodium orthovanadate, and protease inhibitors cocktail. Subsequently, cells were sonicated (three times for 15 s), centrifuged at 20,000× g for 15 min at 4 °C, and the supernatants were collected and stored at −80 °C. The protein concentration was determined using Bradford assay. Then, supernatants were incubated with the Laemmli buffer for 5 min at 98 °C. Equal amounts of total protein (10 to 20 μg) were analyzed by SDS-PAGE, and subsequently, Western blotting was performed using primary antibodies in blocking buffer containing either 3% BSA (bovine serum albumin) or 3% milk in TBS-T (Tris-buffered saline (10 mM Tris-HCl (pH 8), 150 mM NaCl) containing 0.1% Tween 20 or 0.2% Triton X-100) for 1 h. After overnight incubation at 4 °C with the primary antibodies, the membranes were washed with TBS-T and probed with the respective secondary antibodies. The ECL substrate was used for detection and immunoblots were scanned using G Box Chemi (Syngene, Cambridge, UK) with GeneSys software (Syngene, Cambridge, UK) or were developed with the use of X-rays films. UV-irradiated Jurkat cells were used as a positive control in Western blot analysis of c-PARP1. After 2 h, one-minute UV-irradiated Jurkat leukemic T-cell line was lysed and subjected to analysis.
For densitometry, immunoblots were quantified using the Fiji distribution of the ImageJ 1.52a software (National Institutes of Health, Bethesda, MD, USA, and the University of Wisconsin, Madison, WI, USA). Phosphorylated protein densities were normalized to GAPDH densities, assuming 1 for untreated cells and then they were converted to a percent of the appropriate control.

PIM1 = PIM1 (Homo sapiens, UniProt P11309); test: Radiometric (P81 filter isotopic) kinase assay, PIM1; assay type: biochemical; conditions: read-out: Residual Activity of the Enzyme PIM1; for remaining activity at 5 µM: 5 µM compound; for remaining activity at 10 µM: 10 µM compound
PIM1, sequence (P11309 whole entry, species assumed): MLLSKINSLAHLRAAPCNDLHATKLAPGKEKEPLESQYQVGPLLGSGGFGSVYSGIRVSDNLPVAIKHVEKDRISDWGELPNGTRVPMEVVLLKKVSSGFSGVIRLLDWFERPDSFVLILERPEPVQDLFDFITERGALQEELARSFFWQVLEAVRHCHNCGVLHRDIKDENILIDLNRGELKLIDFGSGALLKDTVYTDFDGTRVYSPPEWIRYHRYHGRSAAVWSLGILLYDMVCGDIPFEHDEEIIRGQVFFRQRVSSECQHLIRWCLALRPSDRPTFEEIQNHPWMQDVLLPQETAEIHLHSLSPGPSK

[4] = MCF-7, 72 h treatment, compound at its EC50, relative to untreated control

| SMILES | EC50 (MDA-MB-231 cells; 24 h) | EC50 (MDA-MB-231 cells; 48 h) | EC50 (MDA-MB-231 cells; 72 h) | EC50 (MCF-7 cells; MCF7, 24 h) | EC50 (MCF-7 cells; MCF7, 48 h) | EC50 (MCF-7 cells; MCF7, 72 h) | remaining activity at 5 µM [1] | remaining activity at 10 µM [1] | remaining activity at 5 µM [2] | remaining activity at 10 µM [2] | relative level of p-Ser129 Akt1 [3, 4] | relative level of p-Ser529 p65 [3, 4] | remaining activity at 5 µM (PIM1) | remaining activity at 10 µM (PIM1) | relative level of p-Ser529 p65 ([3]; MCF-7, 24 h treatment, compound at its 72-h EC50, relative to untreated control) |
| --- | --- | --- | --- | --- | --- | --- | --- | --- | --- | --- | --- | --- | --- | --- | --- |
| CCCCCCCC(=O)OCCCn1cnc2c(Br)c(Br)c(Br)c(Br)c21 [Compound 3c, 3-(4,5,6,7-Tetrabromo-1H-benzimidazol-1-yl)propyl octanoate] | 45.1 ± 5.43 µM | 23.7 ± 3.97 µM | 32.8 ± 3.25 µM | 24.3 ± 0.25 µM | 21.1 ± 1.23 µM | 29.9 ± 1.45 µM | 86.1 ± 4.2% | 79.2 ± 7.6% | 95.3 ± 2.9% | 92.7 ± 3.5% | 0.19 | 0.17 | 99.1 ± 15.7% | 95.4 ± 4% |  |
| CCCCCC(=O)OCCCn1c(C)nc2c(Br)c(Br)c(Br)c(Br)c21 [Compound 6b, (4,5,6,7-Tetrabromo-2-methyl-1H-benzimidazol-1-yl)propyl hexanoate] | 51.4 ± 8.22 µM | 21.2 ± 2.4 µM | 22.1 ± 3.18 µM | 22.4 ± 1.12 µM | 18.59 ± 0.18 µM | 18.3 ± 2.86 µM | 76.8 ± 1.9% | 74.3 ± 0.1% | 85.4 ± 0.6% | 71.4 ± 0.2% |  |  | 62.4 ± 8.3% | 46.4 ± 2.7% | 0.33 |
